Structures can show the parent of a compound that is named as a salt.
What follows are molecules tested against factor Xa (Homo sapiens, UniProt P00742) (assay: Factor Xa assay (Test 1a), chromogenic). Details: in vitro factor Xa assay Test 1a; human factor Xa 0.5 nM, substrate S-2765 140 μM, 25° C.; Ki from IC50 corrected for substrate competition.
Assay type: biochemical
Parameters: purchased Enzyme Research Laboratories, Inc; South Bend, Ind
Excerpt: The ability of a compound of formula (I) to inhibit factor Xa, thrombin, plasmin, elastase, and trypsin may be assessed by determining the concentration of compound of formula (I) that inhibits enzyme activity by 50% (IC50). Purified enzymes are used in chromogenic assays. To determine the inhibition constant, the IC50 value is corrected for competition with substrate using the formula:
Ki=IC50×(1/{1+((substrate concentration)/substrate Km)})
where Km is the Michaelis-Menten constant. Y. -C. Chen and W. H. Prusoff, Biochem. Pharmacol. 22: […] (1973), which is incorporated herein by reference.
TBS-PEG buffer (50 mM Tris-Cl, pH 7.8, 200 mM NaCl, 0.05% (w/v) PEG-8000, 0.02% (w/v) NaN3) is used for this assay. The IC50 is determined by combining in appropriate wells of a Costar half-area microtiter plate 25 μl human factor Xa (Enzyme Research Laboratories, Inc.; South Bend, Ind.) in TBS-PEG; 40 μl 10% (v/v) DMSO in TBS-PEG (uninhibited control) or various concentrations of the compound to be tested diluted in 10% (v/v) DMSO in TBS-PEG; and substrate S-2765 (N-benzyloxycarbonyl-D-Arg-Gly-L-Arg-p-nitroanilide; Kabi Pharmacia, Inc.; Franklin Ohio) in TBS-PEG.
The assays are performed by pre-incubating the compound of formula (I) plus enzyme for 10 min, then the assay is initiated by adding substrate to obtain a final volume of 100 μl. The initial velocity of chromogenic substrate hydrolysis is measured by the change in absorbance at 405 nm using a Bio-tek Instruments kinetic plate reader (Ceres UV900HDi) at 25° C. during the linear portion of the time course (usually 1.5 min after addition of substrate). The concentration of inhibitor that causes a 50% decrease in the rate of substrate hydrolysis is predicted by linear regression after plotting the relative rates of hydrolysis (compared to the uninhibited control) versus the log of the compound of formula (I) concentration. The enzyme concentration is 0.5 nM and substrate concentration is 140 μM.

factor Xa, sequence (P00742 235-488 limits assumed): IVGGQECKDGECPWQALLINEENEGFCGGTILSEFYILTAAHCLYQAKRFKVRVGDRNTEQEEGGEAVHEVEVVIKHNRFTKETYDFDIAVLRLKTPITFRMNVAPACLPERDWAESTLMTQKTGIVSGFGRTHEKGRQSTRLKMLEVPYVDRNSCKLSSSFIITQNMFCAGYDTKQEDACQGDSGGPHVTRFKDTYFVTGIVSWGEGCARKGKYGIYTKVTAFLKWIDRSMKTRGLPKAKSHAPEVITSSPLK
factor Xa, sequence (P00742 41-179 limits assumed): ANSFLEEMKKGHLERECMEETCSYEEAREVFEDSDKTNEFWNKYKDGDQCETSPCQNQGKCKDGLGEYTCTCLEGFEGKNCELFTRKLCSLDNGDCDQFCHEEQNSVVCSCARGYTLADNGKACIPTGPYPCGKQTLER

In order of falling Ki:
1. N=C(N)NCCC[C@H](NC(=O)[C@H](CCCN)NC(=O)C(Cc1ccc(C(=N)N)cc1)c1cccnc1)C(N)=O (mixture of isomers) [Example 51, 2-(S)-{5-Amino-2-(S)-[3-(4-carbamimidoyl-phenyl)-2-(R,S)-pyridin-3-yl-propionylamino]-pentanoylamino}-5-guanidino-pentanoic acid amide trifluoroacetic acid salt]  3860 nM
2. N=C(N)NCCC[C@H](NC(=O)[C@H](Cc1ccc2ccccc2c1)NC(=O)C(Cc1ccc(C(=N)N)cc1)c1ccc2ccccc2c1)C(N)=O (mixture of isomers) [Example 39, 2-(S)-{2-(S)-[3-(4-Carbamimidoyl-phenyl)-2-(R,S)-naphthalen-2-yl-propionyl-amino]-3-naphthalen-2-yl-propionylamino}-5-guanidino-pentanoic acid amide trifluoroacetic acid salt]  2890 nM
3. N=C(N)NCCC[C@H](NC(=O)[C@H](CCC(=O)O)NC(=O)C(Cc1ccc(C(=N)N)cc1)c1ccc2ccccc2c1)C(=O)N[C@@H](CC1CCCCC1)C(N)=O (mixture of isomers) [Example 82, 4-(S)-[3-(4-Carbamimidoyl-phenyl)-2-(R,S)-naphthalen-2-yl-propionylamino]-4-[1-(S)-(1-(S)-carbamoyl-2-cyclohexyl-ethylcarbamoyl)-4-guanidino-butylcarbamoyl]-butyric acid trifluoroacetic acid salt]  2840 nM
4. N=C(N)NCCC[C@H](NC(=O)[C@H](CO)NC(=O)C(Cc1ccc(C(=N)N)cc1)c1ccccc1)C(N)=O (mixture of isomers) [Example 57, 2-(S)-{2-(S)-[3-(4-Carbamimidoyl-phenyl)-2-(R,S)-phenyl-propionylamino]-3-hydroxy-propionylamino}-5-guanidino-pentanoic acid amide trifluoroacetic acid salt]  1930 nM
5. CN(C(=O)C(Cc1ccc(C(=N)N)cc1)c1cccnc1)[C@@H](Cc1ccccc1)C(=O)N[C@@H](CCCNC(=N)N)C(N)=O (mixture of isomers) [Example 26, 2-(S)-(2-(S)-{[3-(4-Carbamimidoyl-phenyl)-2-(R,S)-pyridin-3-yl-propionyl]-methyl-amino}-3-phenyl-propionylamino)-5-guanidino-pentanoic acid amide trifluoroacetic acid salt]  1070 nM
6. CC(Cc1ccc(C(=N)N)cc1)(C(=O)N[C@@H](CC1CCCCC1)C(=O)N[C@@H](CCCNC(=N)N)C(N)=O)c1ccccc1 (mixture of isomers) [Example 100, 2-(S)-{2-(S)-[3-(4-Carbamimidoyl-phenyl)-2-(R,S)-methyl-2-phenyl-propionylamino]-3-cyclohexyl-propionylamino}-5-guanidino-pentanoic acid amide trifluoroacetic acid salt]  440 nM
7. CCC(C)[C@@H](C(=O)N[C@@H](CCCNC(=N)N)C(N)=O)N(C)C(=O)C(Cc1ccc(C(=N)N)cc1)c1cccnc1 (mixture of isomers) [Example 18, 2-(S)-{[3-(4-Carbamimidoyl-phenyl)-2-(R,S)-pyridin-3-yl-propionyl]-methyl-amino}-3-methyl-pentanoic acid (1-(S)-carbamoyl-4-guanidino-butyl)-amide trifluoroacetic acid salt]  310 nM
8. N=C(N)NCCC[C@H](NC(=O)[C@H](Cc1ccccc1)NC(=O)C(Cc1ccc(C(=N)N)cc1)c1cccnc1)C(N)=O (mixture of isomers) [Example 106, 2-(S)-{2-(S)-[3-(4-Carbamimidoyl-phenyl)-2-(R,S)-pyridin-3-yl-propionylamino]-3-phenyl-propionylamino}-5-guanidino-pentanoic acid amide trifluoroacetic acid salt]  67 nM
9. N=C(N)c1ccc(CNC(=O)[C@@H](NC(=O)C(Cc2ccc(CN)cc2)C2CCCCC2)C2CCCCC2)cc1 (mixture of isomers) [Example 138, 3-(4-Aminomethyl-phenyl)-N-[(S)-(4-carbamimidoyl-benzyl-carbamoyl)-cyclohexyl-methyl]-2-(R,S)-cyclohexyl-propionamide acetic acid salt]  55 nM
10. CC(Cc1ccc(C(=N)N)cc1)(C(=O)N[C@@H](COCc1ccccc1)C(=O)N[C@@H](CCCNC(=N)N)C(N)=O)c1ccccc1 (mixture of isomers) [Example 70, 2-(S)-{3-Benzyloxy-2-(S)-[3-(4-carbamimidoyl-phenyl)-2-(R,S)-methyl-2-phenyl-propionylamino]-propionylamino}-5-guanidino-pentanoic acid amide trifluoroacetic acid salt]  30 nM
11. N=C(N)NCCC[C@H](NC(=O)[C@@H](NC(=O)C(Cc1ccc(C(=N)N)cc1)c1ccc2ccccc2c1)C1CCCCC1)C(=O)O (mixture of isomers) [Example 79, 2-(S)-{2-(S)-[3-(4-Carbamimidoyl-phenyl)-2-(R,S)-naphthalen-2-yl-propionyl-amino]-2-cyclohexyl-acetylamino}-5-guanidino-pentanoic acid trifluoroacetic acid salt]  22.5 nM
12. Cc1cccc(C(Cc2ccc(C(=N)N)cc2)C(=O)N[C@H](C(=O)N[C@@H](CCCNC(=N)N)C(N)=O)C2CCCCC2)c1 (mixture of isomers) [Example 122, 2-(S)-{2-(S)-[3-(4-Carbamimidoyl-phenyl)-2-(R,S)-m-tolyl-propionylamino]-2-cyclohexyl-acetylamino}-5-guanidino-pentanoic acid amide hydrochloric acid salt]  16 nM
13. N=C(N)NCCC[C@H](NC(=O)[C@@H](NC(=O)C(Cc1ccc(C(=N)N)cc1)c1ccccc1)C1CCCCC1)C(N)=O (mixture of isomers) [Example 135, 2-(S)-{2-(S)-[3-(4-Carbamimidoyl-phenyl)-2-(R,S)-phenyl-propionylamino]-2-cyclohexyl-acetylamino}-5-guanidino-pentanoic acid amide hydrochloric acid salt]  13 nM
14. CCOC(=O)[C@H](CCCNC(=N)N)NC(=O)[C@@H](NC(=O)C(Cc1ccc(C(=N)N)cc1)c1cccc(F)c1)C1CCCCC1 (mixture of isomers) [Example 126, 2-(S)-{2-(S)-[3-(4-Carbamimidoyl-phenyl)-2-(R,S)-(3-fluoro-phenyl)-propionylamino]-2-cyclohexyl-acetylamino}-5-guanidino-pentanoic acid ethyl ester hydrochloric acid salt]  11 nM
15. N=C(N)NCCC[C@H](NC(=O)[C@@H](NC(=O)C(Cc1ccc(C(=N)N)cc1)c1ccc2ccccc2c1)C1CCCCC1)C(N)=O (mixture of isomers) [Example 95, 2-(S)-{2-(S)-[3-(4-Carbamimidoyl-phenyl)-2-(R,S)-naphthalen-2-yl-propionylamino]-2-cyclohexyl-acetylamino}-5-guanidino-pentanoic acid amide trifluoroacetic acid salt]  9.1 nM
16. CC(Cc1ccc(C(=N)N)cc1)(C(=O)N[C@H](C(=O)N[C@@H](CCCNC(=N)N)C(N)=O)C1CCCCC1)c1ccccc1 (mixture of isomers) [Example 96, 2-(S)-{2-(S)-[3-(4-Carbamimidoyl-phenyl)-2-(R,S)-methyl-2-phenyl-propionylamino]-2-cyclohexyl-acetylamino}-5-guanidino-pentanoic acid amide trifluoroacetic acid salt]  8.4 nM
17. Cc1ccccc1C(Cc1ccc(C(=N)N)cc1)C(=O)N[C@H](C(=O)N[C@@H](CCCNC(=N)N)C(N)=O)C1CCCCC1 (mixture of isomers) [Example 140, 2-(S)-{2-(S)-[3-(4-Carbamimidoyl-phenyl)-2-(R,S)-o-tolyl-propionylamino]-2-cyclohexyl-acetylamino}-5-guanidino-pentanoic acid amide hydrochloric acid salt]  3 nM
18. CCCC[C@H](NC(=O)C(Cc1ccc(C(=N)N)cc1)c1cccnc1)C(=O)N[C@@H](CCCNC(=N)N)C(N)=O (mixture of isomers) [Example 23, 2-(S)-[3-(4-Carbamimidoyl-phenyl)-2-(R,S)-pyridin-3-yl-propionylamino]-hexanoic acid (1-(S)-carbamoyl-4-guanidino-butyl)-amide trifluoroacetic acid salt]  2.8 nM
19. N=C(N)NCCC[C@H](NC(=O)[C@@H](NC(=O)C(Cc1ccc(C(=N)N)cc1)c1cccnc1)c1ccccc1)C(N)=O (mixture of isomers) [Example 66, 2-(S)-{2-(S)-[3-(4-Carbamimidoyl-phenyl)-2-(R,S)-pyridin-3-yl-propionyl-amino]-2-phenyl-acetylamino}-5-guanidino-pentanoic acid amide trifluoroacetic acid salt]  2.3 nM

From patent publication US6759420B1, “Arylalkanoyl derivatives, processes for their preparation, their use and pharmaceutical compositions containing them” (Aventis Pharma Deutschland GmbH, priority 1999, dated 2004)
